Data as given in publication PMC7835894 (Molecules, 2021).

Columns and labels:
[1] = system: HCT-116; assay: MTT antiproliferation assay; assay type: cell-based, human; settings: for IC50: Homo sapiens, HCT-116, MTT, 24 h, mean ± SEM; for SI (selectivity index): HCT-116, SI = IC50 (WI-38)/IC50 (cancer cell line)
Method: (§1) The antiproliferation and cytotoxicity were assessed using 3-(4,5-dimethylthiazol-2-yl)-2,5-diphenyltetrazolium bromide (MTT, Serva) colorimetric assay. To investigate the antiproliferation, all cell lines were seeded at a density of 20,000 cells per well in 96-well plates and allowed to adhere overnight. […] These concentrations were prepared by diluting the stock solutions with serum-free culture media. The negative control cells were those treated with 0.1% DMSO solvent alone. The treated cells were handled in reduced light and maintained under standard culture growth conditions for 24 h. After the incubation period, MTT powder was prepared as a stock solution (5 mg/mL) and 20 μL of the MTT working reagent (final concentration 0.5 mg/mL) was added to each well. This was followed by incubation with MTT reagent for 4 h in a humidified atmosphere (37 °C, 5% CO2) with subsequent addition of 150 μL of DMSO solubilizing solvent and incubation for 20 min. The absorbance of solubilized violet formazan crystals was measured at 540 nm with Biotek 800 TS microplate reader. IC50 was calculated as the concentration of retinoid that produced 50% cell growth inhibition. For cytotoxicity assessment, WI-38 normal human fibroblast cells were used for the calculation of SI which is the ratio of IC50 retinoid (WI-38)/IC50 retinoid (cancer cell line).

[2] = system: HepG2; assay: MTT antiproliferation assay; assay type: cell-based, human; settings: for IC50: Homo sapiens, HepG2, MTT, 24 h, mean ± SEM; for SI (selectivity index): HepG2, SI = IC50 (WI-38)/IC50 (cancer cell line)
Method: as §1

[3] = system: A549; assay: MTT antiproliferation assay; assay type: cell-based, human; settings: for IC50: Homo sapiens, A549, MTT, 24 h, mean ± SEM; for SI (selectivity index): A549, SI = IC50 (WI-38)/IC50 (cancer cell line)
Method: as §1

[4] = system: Caco-2; assay: MTT antiproliferation assay; assay type: cell-based, human; settings: for IC50: Homo sapiens, Caco-2, MTT, 24 h, single agent, mean ± SEM; for SI (selectivity index): Caco-2, SI = IC50 (WI-38)/IC50 (cancer cell line)
Method: as §1

[5] = system: DU-145; assay: MTT antiproliferation assay; assay type: cell-based, human; settings: for IC50: Homo sapiens, DU-145, MTT, 24 h, mean ± SEM; for SI (selectivity index): DU-145, SI = IC50 (WI-38)/IC50 (cancer cell line)
Method: as §1

[6] = system: MDA-MB 231; assay: MTT antiproliferation assay; assay type: cell-based, human; settings: for IC50: Homo sapiens, MDA-MB 231, MTT, 24 h, mean ± SEM; for SI (selectivity index): MDA-MB 231, SI = IC50 (WI-38)/IC50 (cancer cell line)
Method: as §1

[7] = system: MCF-7; assay: MTT antiproliferation assay; assay type: cell-based, human; settings: for IC50: Homo sapiens, MCF7, MCF-7, MTT, 24 h, mean ± SEM; for SI (selectivity index): MCF-7, SI = IC50 (WI-38)/IC50 (cancer cell line)
Method: as §1

[8] = system: PC3; assay: MTT antiproliferation assay; assay type: cell-based, human; settings: for IC50: Homo sapiens, PC-3, PC3, MTT, 24 h, mean ± SEM; for SI (selectivity index): PC3, SI = IC50 (WI-38)/IC50 (cancer cell line)
Method: as §1

[9] = system: Huh7; assay: MTT antiproliferation assay; assay type: cell-based, human; settings: for IC50: Homo sapiens, Huh-7, Huh7, MTT, 24 h, mean ± SEM; for SI (selectivity index): Huh7, SI = IC50 (WI-38)/IC50 (cancer cell line)
Method: as §1

[10] = system: WI-38; assay: MTT antiproliferation/cytotoxicity assay; assay type: cell-based, human; settings: for IC50: Homo sapiens, WI-38 normal cells, MTT, 24 h, mean ± SEM; for SI (selectivity index): WI-38, SI = IC50 (WI-38)/IC50 (cell line)
Method: as §1

[11] = system: Caco-2 cells; assay: Intracellular and secreted glutamate assay; assay type: cell-based, human; settings: Caco-2, IC50 doses, 24 h
Method: The glutamate assay was performed using the Glutamate Assay Kit (Sigma-Aldrich, MAK004, St. Louis, MO, USA) according to the manufacturer’s protocol. […] Cells were lysed using 100 µL glutamate assay buffer and insoluble cell debris was then removed by centrifugation at 13,000× g for 10 min. The supernatant was transferred to a 10-KDa molecular weight cut-off (MWCO) spin filter (Sigma-Aldrich, St. Louis, MO, USA) to remove any particulates in the sample, and then was brought to a final volume of 50 µL with glutamate assay buffer and transferred to a 96-well plate. Finally, 100 µL of reaction mix was added to each well and the mixture was incubated for 30 min at 37 °C. The optical density was measured at 450 nm using BioTek 800 TS microplate reader (BioTek, Winooski, VT, USA). For the measurement of secreted glutamate, 50 μL samples of extracellular culture medium were placed in a 96-well plate and the kit’s enzymatic reaction mix was added to induce a glutamate-dependent color change. After 30 min incubation, the reaction products were read at the same wavelength. For determination of glutamate concentration (nmole/µL), a calibration curve was constructed using supplied 0.1 M glutamate standard with different dilutions (0 (blank), 2, 4, 6, 8 and 10 nmole per well). Glutamate concentration was measured according to the manufacturer’s instruction and as documented in earlier studies.

[12] = system: Caco-2 cells; assay: Annexin V-FITC/PI apoptosis assay (flow cytometry); assay type: cell-based, human; settings: Caco-2, IC50 concentration
Method: The ability of synthetic retinoids to induce apoptosis in one of the sensitive cancer cell lines (namely, Caco-2 cells) was detected by Annexin V-FITC and PI according to the protocol of the detection kit (Beckman Coulter, Brea, CA, USA). […] Cells were collected, washed with phosphate-buffered saline (PBS) (Lonza), and resuspended in 1 mL of binding buffer. 100 µL cell suspension was incubated with 1 µL FITC-labeled Annexin V and 5 µL PI for 15 min at 4 °C in the dark. Finally, 400 µL ice-cold binding buffer was added, and the apoptotic cells in each sample were analyzed by Beckman Coulter Epics XL flow cytometer. Apoptotic index (AI) was calculated as the number of apoptotic cell deaths expressed as a percentage from the total gated cells.

[13] = system: Vero; assay: MTT antiproliferation/cytotoxicity assay; assay type: cell-based, African green monkey; settings: Chlorocebus sabaeus, Vero normal cells, 24 h, mean ± SEM
Method: as §1

[14] = system: Caco-2 cells; assay: Transwell cell invasion assay; assay type: cell-based, human; settings: IC50 concentration; for inhibition in Caco-2 cell invasion compared to control: 24 h; for percentage inhibition of Caco-2 cell invasion: 48 h
Method: Caco-2 cell invasion was assessed using a QCM™ 24-well Colorimetric Cell Invasion Assay kit (Chemicon International, Temecula, CA, USA (Cat # ECM551)), according to the manufacturer’s instructions. Cells were starved of serum for 24 h. […] Inserts were further added into a 24-well plate containing 500 µL of 10% FBS-containing DMEM per well. After incubation for 24 or 48 h at 37 °C, remaining media was removed from the invasion chamber, and cells that had migrated to the other side of the membrane were stained with “Cell Stain” solution for 20 min at room temperature. Non-invaded cells were carefully removed from the upper side of the chamber with the help of cotton-tipped swabs. The stain of invaded cells was then extracted by 200 µL of extraction buffer in a clean well for 15 min at room temperature. Finally, 100 µL extracted stained solution was transferred into a 96-well plate and the optical density was measured at 490 nm with BioTek 800 TS microplate reader.

SMILES | IC50 [1] | IC50 [2] | IC50 [3] | IC50 [4] | IC50 [5] | IC50 [6] | IC50 [7] | IC50 [8] | IC50 [9] | IC50 [10] | released (extracellular) glutamate, magnitude of reduction [11] | % early apoptotic cells (C+−) ([12]; 12 h treatment) | % late apoptotic cells (C−+) ([12]; 12 h treatment) | % necrotic cells (C++) ([12]; 12 h treatment) | % viable cells (C−−) ([12]; 12 h treatment) | % early apoptotic cells (C+−) ([12]; 24 h treatment) | % late apoptotic cells (C−+) ([12]; 24 h treatment) | % necrotic cells (C++) ([12]; 24 h treatment) | % viable cells (C−−) ([12]; 24 h treatment) | IC50 [13] | further results
CC1=C(/C=C/C(C)=C/C=C/C(C)=C/C(=O)O)C(C)(C)CCC1 [ATRA, All-trans retinoic acid, reference compound] | > 100 µM | 36.2 ± 1.9 µM | 84.7 ± 3.2 µM | 58 ± 1 µM | > 100 µM | > 100 µM | 99 ± 0.26 µM | > 100 µM | > 100 µM | 34 ± 1.1 µM | 24.1% | 11.99 ± 1.9% | 0.00% | 0.01% | 87.99 ± 15.0% | 47.4 ± 2.5 % | 0.0% | 0.28± 0.17% | 52.4 ± 11.5 % | > 100 µM | inhibition in Caco-2 cell invasion compared to control [14]: 3.8%; percentage inhibition of Caco-2 cell invasion [14]: 8.6%
CC1(C)CCC(C)(C)c2cc(C#Cc3cccc(C(=O)O)c3)ccc21 [EC19, 3-(5,5,8,8-tetramethyl-5,6,7,8-tetrahydronaphthalen-2-ylethynyl) benzoic acid] | > 100 µM | 42.2 ± 0.92 µM | > 100 µM | 10.8 ± 0.1 µM | 86.9 ± 2 µM | > 100 µM | 9.4 ± 0.13 µM | > 100 µM | > 100 µM | 48.4 ± 1.2 µM | 1.4% | 6.30 ± 1.1% | 0.01% | 0.4 ± 0.1% | 93.65 ± 14.0% | 75.3 ± 13.8 % | 0.0% | 0.18 ± 0.05% | 24.5 ± 11.8 % | > 100 µM | SI (selectivity index) [1]: <1; SI (selectivity index) [2]: 1.2 ± 0.002; SI (selectivity index) [3]: <1; SI (selectivity index) [4]: 4.5 ± 0.01; SI (selectivity index) [5]: 0.56 ± 0.001; SI (selectivity index) [6]: <1; SI (selectivity index) [7]: 5.18 ± 0.1; SI (selectivity index) [8]: <1; SI (selectivity index) [9]: 0.14 ±0.01; SI (selectivity index) [10]: 1; % Apoptotic index (AI) ([12]; 12 h treatment): 6.3%; inhibition in Caco-2 cell invasion compared to control [14]: 7.2%; percentage inhibition of Caco-2 cell invasion [14]: 17.2%
CC1(C)CCC(C)(C)c2cc(C#Cc3ccc(C(=O)O)cc3)ccc21 [EC23, 4-(5,5,8,8-tetramethyl-5,6,7,8-tetrahydronaphthalen-2-ylethynyl) benzoic acid] | 44.5 ± 1.1 µM | 0.74 ± 0.001 µM | > 100 µM | 14.7 ± 0.73 µM | > 100 µM | > 100 µM | 5.56 ± 0.01 µM | > 100 µM | > 100 µM | 8.01 ± 0.13 µM | 5% | 8.34 ± 1.1% | 0.01% | 0.05% | 91.61 ± 13.7% | 65.4 ± 18.4 % | 0.0% | 0.16 ± 0.14% | 34.4 ± 18.3 % | 35.2 ± 1.02 µM | SI (selectivity index) [1]: 0.18 ± 0.003; SI (selectivity index) [2]: 10.82 ± 1.0; SI (selectivity index) [3]: <1; SI (selectivity index) [4]: 0.54 ±0.01; SI (selectivity index) [5]: <1; SI (selectivity index) [6]: <1; SI (selectivity index) [7]: 1.44 ± 0.004; SI (selectivity index) [8]: <1; SI (selectivity index) [9]: 0.02 ± 0.001; SI (selectivity index) [10]: 1; % Apoptotic index (AI) ([12]; 12 h treatment): 8.3%; inhibition in Caco-2 cell invasion compared to control [14]: 4.8%; percentage inhibition of Caco-2 cell invasion [14]: 15.8%
